Our source for the IC50 values is patent publication EP1801112A1, “Bicyclic pyrimidines and bicyclic 3,4-dihydropyrimidines as inhibitors of cellular proliferation” (Warner-Lambert Company LLC, priority 1998, dated 1999).

Common to all, as to assay type: biochemical
One assay concerns the target T1, c-Src (Homo sapiens, UniProt P12931).
T1 construct: made in house; host or cells: baculovirus infected insect cells
The assay can be described thus: c-Src protein kinase assay. The settings on record: poly GluTyr substrate, 5 µM ATP. As for the experimental part: The assay was carried out as follows: c-Src kinase was purified from baculovirus infected insect cell lysates using an antipeptide monoclonal antibody directed against the N-terminal amino acids (amino acids 2-17) of c-Src. The antibody, covalently linked to 0.65 µm latex beads, was added to a suspension of insect cell lysis buffer comprised of 150 mM NaCl, 50 mM Tris pH 7.5, 1 mM DTT, 1% NP-40, 2 mM EGTA, 1 mM sodium vanadate, 1 mM PMSF, 1 µg/mL each of leupeptin, pepstatin, and aprotinin. Insect cell lysate containing c-Src protein was incubated with these beads for 3 to 4 hours at 4°C with rotation. At the end of the lysate incubation, the beads were rinsed three times in lysis buffer, resuspended in lysis buffer containing 10% glycerol, and frozen. These latex beads were thawed, rinsed three times in assay buffer (40 mM Tris, pH 7.5, […]) and suspended in the same buffer. In a Millipore 96-well plate with a 0.65 µm polyvinylidine membrane bottom were added the reaction components: 10 µL c-Src beads, 10 µL of 2.5 mg/mL poly GluTyr substrate, 5 µM ATP containing 0.2 µCi labeled ^32P-ATP, 5 µL DMSO containing inhibitors or as a solvent control, and buffer to make the final volume 125 µL. The reaction was started at room temperature by addition of the ATP and quenched 10 minutes later by the addition of 125 µL of 30% TCA, 0.1 M sodium pyrophosphate for 5 minutes on ice. […] The filters were then punched, counted in a liquid scintillation counter, and the data examined for inhibitory activity in comparison to a known inhibitor such as erbstatin. […]

Assay [1] addresses T2, FGF-1 (flg) receptor tyrosine kinase (Homo sapiens, UniProt P11362).
T2 construct: amplify a fragment of DNA that codes for the intracellular tyrosine kinase domain; made in house; host or cells: SF9 insect cells (baculovirus); crude cell lysate used
The experiment in a line: FGF Receptor Tyrosine Kinase Assay. To be noted: glutamate-tyrosine co-polymer substrate, 50 µM ATP. On the procedure:
(§1) PDGF and FGF Receptor Tyrosine Kinase Assays
PCR primers were designed to amplify a fragment of DNA that codes for the intracellular tyrosine kinase domain. The fragment was inserted into a baculovirus vector, cotransfected with AcMNPV DNA, and the recombinant virus isolated. SF9 insect cells were infected with the virus to overexpress the protein, and the cell lysate was used for the assay. Assays were performed in 96-well plates (100 µL/incubation/well), and conditions were optimized to measure the incorporation of ^32P from γ^32P-ATP into a glutamate-tyrosine co-polymer substrate. Briefly, to each well was added 82.5 µL of incubation buffer containing 25 mM Hepes (pH 7.0), 150 mM NaCl, 0.1% Triton X-100, 0.2 mM PMSF, 0.2 mM Na3VO4, 10 mM MnCl2, and 750 µg/mL of Poly (4:1) glutamate-tyrosine followed by 2.5 µL of inhibitor and 5 µL of enzyme lysate (7.5 µg/µL FGF-TK or 6.0 µg/µL PDGF-TK) to initiate the reaction. […] The reaction was terminated by the addition of 100 µL of 30% trichloroacetic acid (TCA) containing 20 mM sodium pyrophosphate and precipitation of material onto glass fiber mats (Wallac). […] Nonspecific activity was defined as radioactivity retained on the filters following incubation of samples with buffer alone (no enzyme). Specific enzymatic activity (enzyme plus buffer) was defined as total activity minus nonspecific activity. […]

A further assay deals with cdk4/D (Homo sapiens, UniProt P11802). The experiment in a line: Cyclin-Dependent Kinase 4 (cdk4) Assay. As for the experimental part: A typical assay, for instance, measures inhibitory activity against the cyclin D dependent kinase 4 enzyme (cdk4/D). […] The cdk4 assay was carried out as follows.
Sequence of cdk4/D (P11802 whole entry): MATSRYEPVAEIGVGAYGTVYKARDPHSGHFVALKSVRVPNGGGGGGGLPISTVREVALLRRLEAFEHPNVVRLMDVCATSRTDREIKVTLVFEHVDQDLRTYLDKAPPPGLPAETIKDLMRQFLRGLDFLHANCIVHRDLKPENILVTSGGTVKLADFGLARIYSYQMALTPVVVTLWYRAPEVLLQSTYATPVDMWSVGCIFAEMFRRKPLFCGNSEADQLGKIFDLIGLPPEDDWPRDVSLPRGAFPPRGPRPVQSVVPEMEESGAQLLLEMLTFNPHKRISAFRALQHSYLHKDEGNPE
Sequence of cdk4/D (P24385 whole entry, further chain): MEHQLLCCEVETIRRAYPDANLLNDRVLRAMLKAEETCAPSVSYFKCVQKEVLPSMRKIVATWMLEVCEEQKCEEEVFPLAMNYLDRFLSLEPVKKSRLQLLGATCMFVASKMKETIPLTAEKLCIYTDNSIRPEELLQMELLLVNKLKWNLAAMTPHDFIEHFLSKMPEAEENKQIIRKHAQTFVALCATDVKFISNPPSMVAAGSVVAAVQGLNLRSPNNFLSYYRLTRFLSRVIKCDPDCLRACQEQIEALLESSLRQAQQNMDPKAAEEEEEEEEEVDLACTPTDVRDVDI
Cyclin-Dependent Kinase 4 (cdk4) Assay
Enzyme assays for IC50 determinations (Tables 1 and 2) and kinetic evaluation were performed in 96 well filter plates (Millipore MADVN6550). The total volume was 0.1 mL containing a final concentration of 20 mM TRIS (tris[hydroxymethyl]aminomethane), at pH 7.4, 50 mM NaCl, 1 mM dithiothreitol, 10 mM MgCl2, 25 µM ATP containing 0.25 µCi of [^32P]ATP, 20 ng of cdk4, 1 µg of retinoblastoma, and appropriate dilutions of a compound of the present invention. All components except the ATP were added to the wells, and the plate was placed on a plate mixer for 2 minutes. The reaction was started by adding [^32P]ATP and the plate was incubated at 25°C for 15 minutes. The reaction was terminated by addition of 0.1 mL of 20% trichloroacetic acid (TCA). The plate was kept at 4°C for at least 1 hour to allow the substrate to precipitate. The wells were then washed five times with 0.2 mL of 10% TCA and ^32P incorporation was determined with a beta plate counter (Wallac Inc., Gaithersburg, MD).

A further assay concerns the target cdk2/cyclinE (Homo sapiens, UniProt P24941). The assay can be described thus: Cyclin-Dependent Kinase Assay cdk2/cyclinE. As for the experimental part:
(§2) Cyclin-Dependent Kinase Assays (cdk2/cyclinE, cdk2/cyclinA, cdc2/cyclinB)
(§3) All components except the ATP were added to the wells, and the plate was placed on a plate mixer for 2 minutes. The reaction was begun by addition of [^32P]ATP, and the plate was incubated at 25°C for 15 minutes. The reaction was terminated by addition of 0.1 mL of 20% TCA. The plate was kept at 4°C for at least 1 hour to allow the substrate to precipitate. The wells were then washed five times with 0.2 mL of 10% TCA and ^32P incorporation determined with a beta plate counter (Wallac Inc., Gaithersburg, MD).

The target in assay [2] is T3, PDGF-β receptor tyrosine kinase (Mus musculus, UniProt P05622).
T3 construct: amplify a fragment of DNA that codes for the intracellular tyrosine kinase domain; made in house; host or cells: SF9 insect cells (baculovirus); crude cell lysate used
T3 sequence (P05622 599-961 limits assumed): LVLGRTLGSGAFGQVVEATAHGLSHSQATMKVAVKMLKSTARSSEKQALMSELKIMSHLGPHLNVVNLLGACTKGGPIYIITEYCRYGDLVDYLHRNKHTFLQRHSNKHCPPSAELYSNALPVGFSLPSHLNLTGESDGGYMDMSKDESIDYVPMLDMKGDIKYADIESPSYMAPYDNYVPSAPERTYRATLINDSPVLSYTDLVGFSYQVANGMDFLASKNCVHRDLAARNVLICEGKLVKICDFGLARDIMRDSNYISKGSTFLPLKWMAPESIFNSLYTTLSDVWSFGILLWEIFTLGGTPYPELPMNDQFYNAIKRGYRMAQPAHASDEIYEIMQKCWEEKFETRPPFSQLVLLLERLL
The assay can be described thus: PDGF Receptor Tyrosine Kinase Assay. To be noted: glutamate-tyrosine co-polymer substrate, 50 µM ATP.
Description: as §1
Full-length cDNAs for the mouse PDGF-β and human FGF-1 (flg) receptor tyrosine kinases were obtained from J. Escobedo and prepared as described in J. Biol. Chem., 1991;262:1482-1487. PCR primers were designed to amplify a fragment of DNA that codes for the intracellular tyrosine kinase domain. The fragment was inserted into a baculovirus vector, cotransfected with AcMNPV DNA, and the recombinant virus isolated. SF9 insect cells were infected with the virus to overexpress the protein, and the cell lysate was used for the assay. Assays were performed in 96-well plates (100 µL/incubation/well), and conditions were optimized to measure the incorporation of ^32P from γ^32P-ATP into a glutamate-tyrosine co-polymer substrate. Briefly, to each well was added 82.5 µL of incubation buffer containing 25 mM Hepes (pH 7.0), 150 mM NaCl, 0.1% Triton X-100, 0.2 mM PMSF, 0.2 mM Na3VO4, 10 mM MnCl2, and 750 µg/mL of Poly (4:1) glutamate-tyrosine followed by […] of inhibitor and 5 µL of enzyme lysate (7.5 µg/µL FGF-TK or 6.0 µg/µL PDGF-TK) to initiate the reaction. Following a 10 minute incubation at 25°C, […] of γ^32P-ATP (0.4 µCi plus 50 µM ATP) was added to each well, and samples were incubated for an additional 10 minutes at 25°C. The reaction was terminated by the addition of 100 µL of 30% trichloroacetic acid (TCA) containing 20 mM sodium pyrophosphate and precipitation of material onto glass fiber mats (Wallac). Filters were washed three times with 15% TCA containing 100 mM sodium pyrophosphate, and the radioactivity retained on the filters counted in a Wallac 1250 Betaplate reader. Nonspecific activity was defined as radioactivity retained on the filters following incubation of samples with buffer alone (no enzyme). Specific enzymatic activity (enzyme plus buffer) was defined as total activity minus nonspecific activity. […]

The next assay deals with cdk2/cyclinA (Homo sapiens, UniProt P24941). The assay can be described thus: Cyclin-Dependent Kinase Assay cdk2/cyclinA. As for the experimental part:
as §2, §3

Another assay deals with cdc2/cyclinB (Homo sapiens, UniProt P06493). The assay can be described thus: Cyclin-Dependent Kinase Assay cdc2/cyclinB. As for the experimental part:
as §2, §3

Where [3] appears, read: 25 µM ATP, retinoblastoma substrate, read-out: IC50 (µM) cdk4/D.
[4] abbreviates: retinoblastoma substrate, read-out: IC50 (µM) cdk2/E.
[5] abbreviates: retinoblastoma substrate, read-out: IC50 (µM) cdk2/A.
The mark [6] stands for this setting: retinoblastoma substrate, read-out: IC50 (µM) cdkl/B.

SMILES strings stand for the structures. Like-named read-outs stand apart in the source and are kept apart here.

T1 sequence (P12931 whole entry): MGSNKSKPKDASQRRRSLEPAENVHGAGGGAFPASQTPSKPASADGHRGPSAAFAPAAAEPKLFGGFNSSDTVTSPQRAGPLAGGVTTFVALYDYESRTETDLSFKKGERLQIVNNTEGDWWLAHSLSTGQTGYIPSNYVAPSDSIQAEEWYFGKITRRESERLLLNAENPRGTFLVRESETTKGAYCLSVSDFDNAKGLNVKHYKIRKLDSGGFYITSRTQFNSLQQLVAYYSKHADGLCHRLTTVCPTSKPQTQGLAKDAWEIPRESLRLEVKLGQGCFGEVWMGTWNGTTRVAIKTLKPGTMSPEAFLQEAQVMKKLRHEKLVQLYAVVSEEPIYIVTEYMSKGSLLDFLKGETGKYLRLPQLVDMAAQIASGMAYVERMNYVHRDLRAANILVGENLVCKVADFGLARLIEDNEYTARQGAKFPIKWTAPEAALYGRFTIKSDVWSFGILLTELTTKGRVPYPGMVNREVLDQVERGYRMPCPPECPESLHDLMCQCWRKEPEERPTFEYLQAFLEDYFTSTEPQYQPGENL
T2 sequence (P11362 478-767 limits assumed): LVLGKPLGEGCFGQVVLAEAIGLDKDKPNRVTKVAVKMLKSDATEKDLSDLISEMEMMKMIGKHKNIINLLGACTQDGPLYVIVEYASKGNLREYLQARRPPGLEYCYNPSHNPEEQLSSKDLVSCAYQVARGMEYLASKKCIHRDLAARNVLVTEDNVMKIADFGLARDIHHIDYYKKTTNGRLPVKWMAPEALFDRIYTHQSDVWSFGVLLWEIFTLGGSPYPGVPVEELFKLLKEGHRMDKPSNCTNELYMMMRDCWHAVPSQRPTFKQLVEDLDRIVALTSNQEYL
Sequence of cdc2/cyclinB (P06493 whole entry): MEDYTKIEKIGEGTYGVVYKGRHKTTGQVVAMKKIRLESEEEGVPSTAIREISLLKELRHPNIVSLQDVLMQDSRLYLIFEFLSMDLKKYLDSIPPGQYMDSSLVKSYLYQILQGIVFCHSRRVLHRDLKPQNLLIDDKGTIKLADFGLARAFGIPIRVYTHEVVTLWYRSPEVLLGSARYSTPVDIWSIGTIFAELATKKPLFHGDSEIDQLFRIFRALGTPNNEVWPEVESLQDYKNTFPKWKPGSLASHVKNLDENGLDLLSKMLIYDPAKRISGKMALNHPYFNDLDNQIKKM
Sequence of cdc2/cyclinB (P14635 whole entry, further chain): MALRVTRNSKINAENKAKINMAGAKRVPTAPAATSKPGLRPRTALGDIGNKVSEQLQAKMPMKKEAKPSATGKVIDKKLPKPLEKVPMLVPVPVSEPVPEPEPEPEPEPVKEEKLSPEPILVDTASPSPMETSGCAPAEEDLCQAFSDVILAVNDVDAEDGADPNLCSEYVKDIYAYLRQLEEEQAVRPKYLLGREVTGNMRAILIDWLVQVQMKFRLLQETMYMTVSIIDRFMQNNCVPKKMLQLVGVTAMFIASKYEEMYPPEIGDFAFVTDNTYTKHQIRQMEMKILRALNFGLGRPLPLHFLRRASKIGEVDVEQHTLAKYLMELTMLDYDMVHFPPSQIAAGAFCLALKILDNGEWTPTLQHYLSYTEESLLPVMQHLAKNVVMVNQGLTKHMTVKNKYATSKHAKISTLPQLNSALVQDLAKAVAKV

Turning to `CN1CCN(c2ccc(Nc3ncc4c(n3)N(C3CCCC3)C(=O)NC4)cc2)CC1` [Example 11, 1-Cyclopentyl-7-[4-(4-methylpiperazin-1-yl)phenylamino]-3,4-dihydropyrimido[4,5-d]pyrimidin-2(1H)-one], the IC50 turned out to be 0.71 µM against c-Src; 0.023 µM in assay [1]; 0.039 µM at cdk4/D (setting [3]); 2.12 µM at cdk2/cyclinE (setting [4]); 0.175 µM in assay [2]; 0.76 µM at cdk2/cyclinA (setting [5]). In addition, the IC50 on cdc2/cyclinB (setting [6]) came to 11.6 µM.

As to `O=C1NCc2cnc(Nc3ccc(N4CCCC(O)C4)cc3)nc2N1C1CCCC1` (centres unmarked) [Example 16, 1-Cyclopentyl-7-[4-(3-hydroxypiperidin-1-yl)phenylamino]-3,4-dihydropyrimido[4,5-d]pyrimidin-2(1H)-one], the IC50 at c-Src was 4.12 µM; on cdk4/D, 0.63 µM; against cdk2/cyclinE it was 1.5 µM; in assay [2] it was 0.83 µM; against cdk2/cyclinA it was 0.64 µM; against cdc2/cyclinB it was 14.9 µM.

For the compound `CC1CN(c2ccc(Nc3ncc4c(n3)N(C3CCCC3)C(=O)NC4)cc2)CC(C)N1` (centres unmarked) [Example 18, 1-Cyclopentyl-7-[4-(3,5-dimethylpiperazin-1-yl)phenylamino]-3,4-dihydropyrimido[4,5-d]pyrimidin-2(1H)-one], the IC50 amounted to 0.4 µM against c-Src, 0.35 µM at cdk4/D, 2 µM against cdk2/cyclinE and 0.21 µM in assay [2].

In the case of `CN1CCN(c2ccc(Nc3ncc4cnc(=O)n(C5CCCC5)c4n3)cc2)CC1` [Example 32, 1-Cyclopentyl-7-[4-(4-methylpiperazin-1-yl)phenylamino]pyrimido-[4,5-d]pyrimidin-2(1H)-one], the IC50 is 3.95 µM on c-Src; 0.37 µM in assay [1]; 0.05 µM at cdk4/D (setting [3]); 1.38 µM at cdk2/cyclinE (setting [4]); 1.63 µM in assay [2]; 0.83 µM at cdk2/cyclinA (setting [5]). Also, the IC50 on cdc2/cyclinB (setting [6]) came out at 7.51 µM.

`O=c1ncc2cnc(Nc3ccc(N4CCCC(O)C4)cc3)nc2n1C1CCCC1` (centres unmarked) [Example 35, 1-Cyclopentyl-7-[4-(3-hydroxypiperidin-1-yl)phenylamino]pyrimido[4,5-d]-pyrimidin-2(1H)-one]: the IC50 worked out at 4.65 µM at c-Src; 3.49 µM in assay [1]; 0.082 µM against cdk4/D; 1.05 µM against cdk2/cyclinE; 2.8 µM in assay [2]; 0.99 µM against cdk2/cyclinA. The IC50 against cdc2/cyclinB amounted to 8.54 µM.

For the compound `O=c1ncc2cnc(Nc3ccc(-n4cccn4)cc3)nc2n1C1CCCC1` [Example 36, 1-Cyclopentyl-7-[4-(pyrazol-1-yl)phenylamino]pyrimido[4,5-d]pyrimidin-2(1H)-one], the IC50 in assay [1] was greater than 50 µM; at cdk4/D, 0.435 µM; against cdk2/cyclinE it was 2.44 µM; in assay [2], greater than 50 µM; against cdk2/cyclinA, 1.33 µM; against cdc2/cyclinB, 16.1 µM.

Regarding `O=c1ncc2cnc(Nc3ccc(N4CCC(CCN5CCOCC5)CC4)cc3)nc2n1C1CCCC1` [Example 39], the IC50 is 3.23 µM against c-Src; 0.3 µM against cdk4/D; 1.85 µM at cdk2/cyclinE; 3.76 µM in assay [2]; 1.44 µM against cdk2/cyclinA; 24.6 µM on cdc2/cyclinB.

As for `CC(C)n1c(=O)ncc2cnc(Nc3ccc(N4CCC(N(C)C)CC4)cc3)nc21` [Example 41, 7-{4-[4-(Dimethylamino)piperidin-1-yl]phenylamino}-1-isopropyl-pyrimido[4,5-d]pyrimidin-2(1H)-one], the IC50 against c-Src is 3.06 µM; in assay [1], 11.7 µM; against cdk2/cyclinE, greater than 40 µM; in assay [2], greater than 50 µM; on cdk2/cyclinA it was 14.8 µM; at cdc2/cyclinB, greater than 40 µM.

Turning to `CCN(CC)CCOc1ccc(Nc2ncc3c(n2)N(CC)C(=O)N(c2cc(OC)cc(OC)c2)C3)cc1` [Example 53a, 7-[4-(2-Diethylamino-ethoxy)-phenylamino]-3-(3,5-dimethoxy-phenyl)-1-ethyl-3,4-dihydro-pyrimido[4,5-d]pyrimidin-2(1H)-one], the results for the IC50 in assay [1] and in assay [2] were 0.02 µM and less than 0.5 µM, respectively.

With `C=CCn1c(=O)c2cnc(Nc3ccc(N4CCN(C)CC4)cc3)nc2n(C(C)C)c1=O` [Example 70, 3-Allyl-1-isopropyl-7-[4-(4-methylpiperazin-1-yl)phenylamino]-1H-pyrimido[4,5-d]pyrimidine-2,4-dione], the IC50 was greater than 50 µM in assay [1]; 3.45 µM at cdk4/D; greater than 50 µM in assay [2]; greater than 40 µM against cdk2/cyclinA; greater than 40 µM on cdc2/cyclinB.
